Each structure is given as a SMILES string.

This assay has as its target T1, CCR9 (Homo sapiens, UniProt P51686).
T1 construct: chemokine expressing cells (such as THP-1 cells for CCR2 assay or MOLT-4 cells for CCR9 assay); host or cells: MOLT-4
T1 sequence (P51686 1-369): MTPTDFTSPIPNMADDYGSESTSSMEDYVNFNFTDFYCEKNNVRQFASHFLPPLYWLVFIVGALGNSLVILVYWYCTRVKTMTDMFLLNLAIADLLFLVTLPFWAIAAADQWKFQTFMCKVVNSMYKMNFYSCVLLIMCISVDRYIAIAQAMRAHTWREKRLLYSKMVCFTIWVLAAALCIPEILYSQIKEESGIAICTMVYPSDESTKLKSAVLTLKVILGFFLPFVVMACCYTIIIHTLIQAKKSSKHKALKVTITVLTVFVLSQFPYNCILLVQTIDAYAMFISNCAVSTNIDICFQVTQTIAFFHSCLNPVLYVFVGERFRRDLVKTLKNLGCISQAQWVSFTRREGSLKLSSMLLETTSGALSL
Put plainly: CCR9 activity in one of the chemotaxis, binding or calcium mobilization assays. In kind it is cell-based. The conditions noted are these: assay not specified per compound. In a few lines:
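Chemotaxis: THP-1 cells (CCR2, 0.1 nM MCP-1, 90 min) or MOLT-4 cells (CCR9, 50 nM TECK, 150 min) preincubated with compound 15 min RT, migration at 37 °C through 5-μm membrane, CyQUANT read; IC50 by nonlinear regression. Calcium flux: Fluo-4-loaded cells, 0.1 nM MCP-1 or 25 nM TECK. Binding: THP-1, ~50 pM [125I]MCP-1, 3 h, 4 °C.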
What is called IC50 is the concentration that inhibits the measured activity by half. Consider `COCc1nnc(-c2cc(Cl)ccc2NS(=O)(=O)c2ccc(C(C)(C)C)cc2)n1C(C)C` [Compound 96, 4-tert-butyl-N-(4-chloro-2-(4-isopropyl-5-(methoxymethyl)-4H-1,2,4-triazol-3-yl)phenyl)benzenesulfonamide], for which the concentration for half-maximal inhibition (IC50) was < 1 µM.

In the case of `CCc1nnc(-c2cc(C(=O)O)ccc2NS(=O)(=O)c2ccc(C(C)(C)C)cc2)n1C` [Compound 130, 4-(4-tert-butylphenylsulfonamido)-3-(5-ethyl-4-methyl-4H-1,2,4-triazol-3-yl)benzoic acid], the half-inhibitory concentration (IC50) was < 1 µM.

For the compound `Cc1nnc(-c2cc(Cl)ccc2NS(=O)(=O)c2ccc(C(C)(C)C)cc2)n1C` [Compound 6, 4-tert-butyl-N-(4-chloro-2-(4,5-dimethyl-4H-1,2,4-triazol-3-yl)phenyl)benzenesulfonamide], the half-maximal inhibitory concentration (IC50) was < 1 µM.

`Cc1nnc(-c2cc(Cl)ccc2NS(=O)(=O)c2ccc(C(C)(C)C)cc2)n1C1CCOCC1` [Compound 12]: the IC50 is < 1 µM.

Turning to `CC(C)c1nnc(-c2cc(Cl)c(F)cc2NS(=O)(=O)c2ccc(C(C)(C)C)cc2)n1C1CCOC1` (stereo not shown) [Compound 81], the IC50 was < 1 µM.

Take `CC(C)(C)c1ccc(S(=O)(=O)Nc2cc(F)c(Cl)cc2-c2nncn2C2CCCOC2)cc1` (stereo not shown) [Compound 108]: the IC50 was < 1 µM.

With `Cn1c(-c2cocn2)nnc1-c1cc(Cl)c(F)cc1NS(=O)(=O)c1ccc(C(C)(C)C)cc1` [Compound 111], the IC50 was < 1 µM.

Consider `CC(C)(C)c1ccc(S(=O)(=O)Nc2ccc(Cl)cc2-c2nncn2-c2ccccc2)cc1` [Compound 2, 4-tert-butyl-N-(4-chloro-2-(4-phenyl-4H-1,2,4-triazol-3-yl)phenyl)benzenesulfonamide], for which the half-inhibitory concentration (IC50) was < 1 µM.

As to `Cc1nnc(-c2cc(Cl)ccc2NS(=O)(=O)c2ccc(C(C)(C)C)cc2)n1C1CCNC1` (stereo not shown) [Compound 99], the 50% inhibitory concentration (IC50) is < 1 µM.

As for `CN(C)Cc1nnc(-c2cc(Cl)c(F)cc2NS(=O)(=O)c2ccc(C(C)(C)C)cc2)n1C` [Compound 39, 4-tert-butyl-N-(4-chloro-2-(5-((dimethylamino)methyl)-4-methyl-4H-1,2,4-triazol-3-yl)-5-fluorophenyl)benzenesulfonamide], the half-maximal inhibitory concentration (IC50) is < 1 µM.

For `CC(C)n1c(CN2CCOCC2)nnc1-c1cc(Cl)c(F)cc1NS(=O)(=O)c1ccc(C(C)(C)C)cc1` [Compound 154], the IC50 was < 1 µM.

Turning to `Cn1c(CN[C@H]2CCOC2)nnc1-c1cc(Cl)c(F)cc1NS(=O)(=O)c1ccc(C(C)(C)C)cc1` [Compound 148], the IC50 was < 1 µM.

With `Cc1nnc(-c2cc(Cl)ccc2NS(=O)(=O)c2ccc(C(C)(C)C)cc2)n1[C@@H](C)CO` [Compound 26], the 50% inhibitory concentration (IC50) is < 1 µM.

As to `CC(C)(C)c1ccc(S(=O)(=O)Nc2ccc(Cl)cc2-c2nncn2C2CCOC2)cc1` (stereo not shown) [Compound 35], the concentration for half-maximal inhibition (IC50) was < 1 µM.

In the case of `CCn1cnnc1-c1ccc(F)cc1NS(=O)(=O)c1ccc(C(C)(C)C)cc1` [Compound 23, 4-tert-butyl-N-(2-(4-ethyl-4H-1,2,4-triazol-3-yl)-5-fluorophenyl)benzenesulfonamide], the half-maximal inhibitory concentration (IC50) is < 1 µM.

As to `Cc1nnc(-c2cc(F)c(F)cc2NS(=O)(=O)c2ccc(C(C)(C)C)cc2)n1C` [Compound 100, 4-tert-butyl-N-(2-(4,5-dimethyl-4H-1,2,4-triazol-3-yl)-4,5-difluorophenyl)benzenesulfonamide], the IC50 was < 1 µM.

With `CCc1nnc(-c2cc(Cl)ccc2NS(=O)(=O)c2ccc(C(C)(C)C)cc2)n1CC` [Compound 38, 4-tert-butyl-N-(4-chloro-2-(4,5-diethyl-4H-1,2,4-triazol-3-yl)phenyl)benzenesulfonamide], the IC50 was < 1 µM.

Take `CC(C)(C)c1ccc(S(=O)(=O)Nc2cc(F)c(Cl)cc2-c2nncn2[C@@H]2CCOC2)cc1` [Compound 53]: the IC50 was < 1 µM.

On to `CCn1c(C)nnc1-c1c(NS(=O)(=O)c2ccc(C(C)(C)C)cc2)ccc(Cl)c1F` [Compound 29, 4-tert-butyl-N-(4-chloro-2-(4-ethyl-5-methyl-4H-1,2,4-triazol-3-yl)-3-fluorophenyl)benzenesulfonamide], for which the IC50 is < 1 µM.

For the origin of these results see patent US8153818B2, “Triazolyl phenyl benzenesulfonamides” (ChemoCentryx, Inc., priority 2006, dated 2012).
